The values that follow come from publication PMC8881610 (Nature Communications, 2022).

For assay [1], the target named is GLP-1R (Homo sapiens, UniProt P43220, K202A). Put plainly: cAMP accumulation assay, GLP-1R WT, mutant or modified constructs. The class given is cell-based. Details: Flag; expressed in transfected cells; host or cells: HEK293T. Conditions: GLP-1R K202A, HEK293T. A digest of the protocol:
(§1)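 HEK293T cells transiently expressing wild-type, mutant or modified human GLP-1R (HA signal peptide constructs) were used. Cells were stimulated with peptide agonists for 40 min at room temperature in HBSS with 0.5 mM IBMX and 0.1% BSA or casein. cAMP was quantified by LANCE Ultra TR-FRET (620/650 nm).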

Assay [2] addresses GLP-1R (Homo sapiens, UniProt P43220, D198A). The assay is described as above. Details: Flag; expressed in transfected cells; host or cells: HEK293T. The class given is cell-based. The settings on record: GLP-1R D198A, HEK293T. The method, boiled down: as §1
The target in assay [3] is GLP-1R (Homo sapiens, UniProt P43220, W39A). The description is as above. The class given is cell-based. Details: Flag; expressed in transfected cells; host or cells: HEK293T. The settings on record: HEK-293T, GLP-1R W39A; HEK293T. The method, boiled down:
as §1

Assay [4] addresses T1, GLP-1R (Homo sapiens, UniProt P43220, Y205A). The assay is described as above. The class given is cell-based. Details: Flag; expressed in transfected cells; host or cells: HEK293T. Conditions: GLP-1R Y205A, HEK293T. A digest of the protocol: as §1
Assay [5] concerns the target GLP-1R (Homo sapiens, UniProt P43220, R134A). The description is as above. The class given is cell-based. Conditions: GLP-1R R134A, HEK293T. Details: Flag; expressed in transfected cells; host or cells: HEK293T. The method, boiled down:
as §1

For assay [6], the target named is T2, GLP-1R (Homo sapiens, UniProt P43220, D198A/K202A/Y145A). The assay is described as above. The class given is cell-based. Details: Flag; expressed in transfected cells; host or cells: HEK293T. Conditions: GLP-1R Y145A/D198A/K202A, HEK293T. The method, boiled down:
as §1

The target in assay [7] is GLP-1R (Homo sapiens, UniProt P43220, W91A). Described as above. The class given is cell-based. Further details: Flag; expressed in transfected cells; host or cells: HEK293T. The settings on record: GLP-1R W91A, HEK293T. A digest of the protocol:
as §1

The target of assay [8] is T1, GLP-1R. The assay can be described thus: Whole-cell binding assay, competition with 125I-GLP-1(7-36)NH2. Details: Flag; expressed in transfected cells. The settings on record: GLP-1R Y205A, CHO-K1. The method, boiled down: (§2)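 CHO-K1 cells transiently transfected with WT or mutant receptor constructs, washed in F-12 with 0.1% BSA or casein/33 mM HEPES and incubated 2 h at 37 °C. Bound radioactivity counted after Triton lysis; data normalized to WT and fitted to a three-parameter logistic equation.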

Assay [9] concerns the target T2, GLP-1R. Described as above. Further details: Flag; expressed in transfected cells. The settings on record: GLP-1R Y145A/D198A/K202A, CHO-K1. The method, boiled down:
as §2

[10] abbreviates: read-out: cAMP pEC50 (converted).
The mark [11] stands for this setting: read-out: binding pIC50 (converted).

T1 sequence (P43220 24-463 Y205A): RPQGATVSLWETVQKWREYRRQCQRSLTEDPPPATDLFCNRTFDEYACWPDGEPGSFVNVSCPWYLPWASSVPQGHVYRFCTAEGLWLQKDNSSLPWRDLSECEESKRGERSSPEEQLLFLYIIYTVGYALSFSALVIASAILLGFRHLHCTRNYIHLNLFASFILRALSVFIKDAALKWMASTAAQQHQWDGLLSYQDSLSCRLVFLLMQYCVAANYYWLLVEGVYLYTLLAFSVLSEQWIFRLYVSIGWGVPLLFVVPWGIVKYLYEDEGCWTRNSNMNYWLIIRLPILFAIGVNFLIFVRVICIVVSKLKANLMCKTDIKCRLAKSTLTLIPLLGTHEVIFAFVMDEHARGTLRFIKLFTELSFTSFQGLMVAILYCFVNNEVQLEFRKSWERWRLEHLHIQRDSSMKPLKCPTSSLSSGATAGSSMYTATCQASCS
T2 sequence (P43220 24-463 Y145A/D198A/K202A): as the sequence (P43220 24-463 Y205A) above, with Y122A, D175A, K179A, A182Y counted along it
Chain of GLP-1R (Homo sapiens, UniProt P43220, D198A) (P43220 24-463 D198A): as the sequence (P43220 24-463 Y205A) above, with D175A, A182Y counted along it
Chain of GLP-1R (Homo sapiens, UniProt P43220, K202A) (P43220 24-463 K202A): as the sequence (P43220 24-463 Y205A) above, with K179A, A182Y counted along it
Chain of GLP-1R (Homo sapiens, UniProt P43220, R134A) (P43220 24-463 R134A): as the sequence (P43220 24-463 Y205A) above, with R111A, A182Y counted along it
Chain of GLP-1R (Homo sapiens, UniProt P43220, W91A) (P43220 24-463 W91A): as the sequence (P43220 24-463 Y205A) above, with W68A, A182Y counted along it
Chain of GLP-1R (Homo sapiens, UniProt P43220, W39A) (P43220 24-463 W39A): as the sequence (P43220 24-463 Y205A) above, with W16A, A182Y counted along it

As for `CCCCCCCCCCCCCCCC(=O)N[C@@H](CCC(=O)NCCCC[C@H](NC(=O)[C@H](CC(=O)O)NC(=O)[C@H](CO)NC(=O)[C@@H](NC(=O)[C@H](Cc1ccccc1)NC(=O)[C@@H](NC(=O)CNC(=O)[C@H](CCC(N)=O)NC(=O)C(C)(C)NC(=O)[C@@H](N)Cc1c[nH]cn1)[C@@H](C)O)[C@@H](C)O)C(=O)N[C@@H](CO)C(=O)N[C@@H](CCCCN)C(=O)N[C@@H](Cc1ccc(O)cc1)C(=O)N[C@@H](CC(C)C)C(=O)N[C@@H](CC(=O)O)C(=O)N[C@@H](CCC(=O)O)C(=O)N[C@@H](CCCNC(=N)N)C(=O)N[C@@H](C)C(=O)N[C@@H](C)C(=O)N[C@@H](CCC(N)=O)C(=O)N[C@@H](CC(=O)O)C(=O)N[C@@H](Cc1ccccc1)C(=O)N[C@H](C(=O)N[C@@H](CCC(N)=O)C(=O)N[C@@H](Cc1c[nH]c2ccccc12)C(=O)N[C@@H](CC(C)C)C(=O)N[C@@H](CC(C)C)C(=O)N[C@@H](CC(=O)O)C(=O)NCC(=O)NCC(=O)N1CCC[C@H]1C(=O)N[C@@H](CO)C(=O)N[C@@H](CO)C(=O)NCC(=O)N[C@@H](C)C(=O)N1CCC[C@H]1C(=O)N1CCC[C@H]1C(=O)N1CCC[C@H]1C(=O)N[C@@H](CO)C(N)=O)C(C)C)C(=O)O` [Peptide 20], the EC50 in assay [1] (setting [10]) is 0.00257 nM; in assay [2] (setting [10]), 0.00447 nM; in [4] (setting [10]), 0.00851 nM; in [5] (setting [10]) it was 0.00661 nM; in assay [6] (setting [10]) it was 0.0389 nM; in [7] (setting [10]), 0.00603 nM. Moreover, the Emax (in general, the greatest response seen or fitted, relative to the assay's reference) came to 100 ± 1.97% in assay [1] (HEK-293T); 99.9 ± 1.82% in assay [2] (HEK-293T); 100 ± 1.04% in assay [3]; 101 ± 1.08% in [4] (HEK-293T); 101 ± 1.08% in assay [5] (HEK-293T); 99.9 ± 1.67% in [6] (HEK-293T). The compound also returned an Emax in assay [7] (HEK-293T) of 100 ± 1.33%. The “binding Span” value in assay [8] turned out to be 6.01 ± 3.17 % WT; in [9], 10.85 ± 36.78 % WT. The IC50 in [8] (setting [11]) was 50.1 nM; in [9] (setting [11]), 1780 nM.
